# Experimental data taken from US12059400B2, “Medical compound” (VERA SALUS RICERCA S.R.L., priority 2017, dated 2024).
# “Also recorded” adds a separate entry of the source.
# System: melanoma, A375
# Test: Apoptosis, acridine orange/ethidium bromide method
# Assay type: cell-based, human
# Details: 2 hrs; Compound 2 40 μM, 5 40 μM, 4 40 μM, 3 60 μM, 1 80 μM; FIG. 18
# Text: (§1) Tumour cell apoptosis was quantified by the acridine orange/ethidium bromide (AO/EB) method and by using a fluorescence microscope and image-J. In short, after treatment with the test compounds (2 hrs), the tumour cells were placed in contact with an AO/EB solution (in sterile H2O) and photographed with a fluorescence microscope (Leica) by using the ≥20× objective (so as to distinguish the morphology of cell nuclei). In this way, the living cells are labelled with AO and emit fluorescence in the green channel, while the necrotic cells, which have undergone the rupture of the plasma membrane, are permeable to EB and emit fluorescence in the red channel. In contrast, apoptotic cells are permeable to both AO and EB, and as a consequence of the colocalization of the two fluorescences appear yellow-orange when the two individual microscope-acquired fluorescences are superimposed by using the editing program Image J. The objective quantification of the colocalization areas (apoptotic cells) and the non-colocalization areas (living or necrotic cells) was carried out on a number of cells ≥300/condition through the use of Apoptosis Correlator (ImageJ plug-in) and shown as the percentage of living (green), necrotic (red) or apoptotic (yellow-orange) tumour cells. Data analysis was carried out by using GraphPad Prism 6 for graphical representation and statistical processing (2-way ANOVA test).
row,Substance,induction of apoptosis in A375
1,"2-(3,4-dihydroxyphenyl)-5,7-dihydroxy-4-oxo-4H-chromen-3-yl acetate [Compound 4]",induced apoptosis
2,"2-(3,4-Dihydroxyphenyl)-3-hexyloxy-5,7-dihydroxy-4H-chromen-4-one [Compound 2]",induced apoptosis

# System: human colon carcinoma cells (HCT116)
# Test: Cell cycle progression, propidium iodide method, cytofluorimeter
# Assay type: cell-based
# Details: 24 hrs; at the respective anti-proliferative IC50s; FIG. 20
# Description: (§2) Progression through the tumour cell cycle was assessed by the propidium iodide method and quantification of the cell DNA content with a cytofluorimeter. Briefly, after treatment (in duplicate) with the test compounds (24 hrs), the tumour cells were washed (with PBS), detached with trypsin-EDTA and pelleted by centrifugation (125 g for 6 min). The cells were then fixed in ethanol (70%) and stored in the freezer (−20° C.) for 1-3 days. After further washing (PBS) and treatment with RNAse (50 ug/ml), the cells were contacted (on ice in the dark; 30 min) with propidium iodide (50 μg/ml). FL2 and FL3 cytofluorimeter readings analysed approximately 50,000 cells (1 μl/second) per sample. Statistical analysis and graphical representation were performed by using t-tests and preset Excel property files.
row,Substance,halt of HCT116 tumour cells in S of the cell cycle
1,"2-(3,4-dihydroxyphenyl)-5,7-dihydroxy-4-oxo-4H-chromen-3-yl acetate [Compound 4]",significantly halt

# System: human melanoma cells (A375)
# Test: as above
# Assay type: cell-based
# Details: 24 hrs; at the respective anti-proliferative IC50s; FIG. 19
# Description: as §2
row,Substance,halt of A375 tumour cells in S and/or G2 of the cell cycle
1,"2-(3,4-dihydroxyphenyl)-5,7-dihydroxy-4-oxo-4H-chromen-3-yl acetate [Compound 4]",significantly halt
2,"2-(3,4-Dihydroxyphenyl)-3-hexyloxy-5,7-dihydroxy-4H-chromen-4-one [Compound 2]",significantly halt

# System: human colon carcinoma cells (HCT116)
# Test: Cell proliferation, crystal violet method
# Assay type: cell-based
# Details: 100 μM; FIG. 3a, 3b, 13a, 13b
# Description: (§3) The compound according to the invention, and in particular the synthetic quercetin derivatives described and illustrated herein were investigated in vitro by using human tumour cells and assessing their impact on the tumour proliferative capacity, with regard to the tumours described above. In particular, the following human tumour cell lines were assessed experimentally: 1) HCT116, colon adenocarcinoma cells; 2) H1299, lung adenocarcinoma cells; 3) A375, melanoma cells, and 4) A431, squamous skin cell carcinoma; 5) 786-0, renal carcinoma cells; 6) PC3, prostate carcinoma cells; 7) BT549, mammary carcinoma cells; 8) CAL27, tongue carcinoma cells (belonging to the head-and-neck carcinomas); 9) HepG2, hepatocellular carcinoma cells; 10) PANC-1, pancreas carcinoma cells; 11) T24, bladder carcinoma cells; 12) OVCAR-3, ovarian carcinoma cells. In addition, a normal human cell line, WS1 (skin fibroblasts) was also treated with the novel synthetic compounds.
# (§4) Cell proliferation was quantified by the crystal violet method with a spectrophotometer. In short, after acquiring serial images (0, 24 and 48 hrs) with the EVOS XL Cell Imaging System microscope (Thermo Fisher Scientific), the cells imaged at 48 hrs were fixed with paraformaldehyde (4%) and stained with Crystal Violet (1%). Then, the specific absorbance (λ=590 nm) at 48 hrs was measured with a spectrophotometer (Infinite®200 PRO, Tecan). Data analysis was carried out by using ad-hoc Excel files for graphical representation and statistical processing (t-test). Moreover, the results obtained with Crystal Violet were confirmed by using another cell proliferation assessment method based on the real time cellular analyzer XCELLigence RTCA DP (ACEA Biosciences, Inc.). This tool allows cell growth to be monitored from electrical impedance-derived quantitative values (the so-called Cell Index) measured by tiny electrodes located at the base of the culture wells. Proliferation is monitored for several days (5-7) by setting a Cell Index per minute measure on the instrument. The data are analysed by processing various parameters calculated by the dedicated software, such as the cell duplication time, the slope and the Max Cell Index.
# (§5) Cell proliferation was quantitated spectrophotometrically by the crystal violet method.
row,Substance,HCT116 cell growth vs vehicle control
1,"2-(3,4-dihydroxyphenyl)-5,7-dihydroxy-4-oxo-4H-chromen-3-yl acetate [Compound 4]",significantly inhibit
2,"2-(3,4-Dihydroxyphenyl)-3-hexyloxy-5,7-dihydroxy-4H-chromen-4-one [Compound 2]",significantly inhibit

# Same assay, conditions: crystal violet, spectrophotometer; read-out: IC50 anti-proliferative effect, CRC (HCT116)
row,Substance,IC50
1,"2-(3,4-dihydroxyphenyl)-5,7-dihydroxy-4-oxo-4H-chromen-3-yl acetate [Compound 4]",22.9 µM
2,"2-(3,4-Dihydroxyphenyl)-3-hexyloxy-5,7-dihydroxy-4H-chromen-4-one [Compound 2]",42.8 µM

# System: human tongue carcinoma cells (Cal27)
# Test: Cell proliferation, crystal violet method
# Assay type: cell-based
# Details: 80 μM; FIG. 7a, 7b
# Description: as §3, §4, §5
row,Substance,Cal27 tumour growth vs vehicle control
1,"2-(3,4-dihydroxyphenyl)-5,7-dihydroxy-4-oxo-4H-chromen-3-yl acetate [Compound 4]",significantly inhibit
2,"2-(3,4-Dihydroxyphenyl)-3-hexyloxy-5,7-dihydroxy-4H-chromen-4-one [Compound 2]",significantly inhibit

# Same assay, conditions: crystal violet, spectrophotometer; read-out: IC50 anti-proliferative effect, HNC - (Cal27)
row,Substance,IC50
1,"2-(3,4-dihydroxyphenyl)-5,7-dihydroxy-4-oxo-4H-chromen-3-yl acetate [Compound 4]",22.9 µM
2,"2-(3,4-Dihydroxyphenyl)-3-hexyloxy-5,7-dihydroxy-4H-chromen-4-one [Compound 2]",63.2 µM

# System: human mammary carcinoma cells (BT549)
# Test: Cell proliferation, crystal violet method
# Assay type: cell-based
# Details: 80 μM; FIG. 6a, 6b
# Description: as §3, §4, §5
row,Substance,BT549 cell growth vs vehicle control
1,"2-(3,4-dihydroxyphenyl)-5,7-dihydroxy-4-oxo-4H-chromen-3-yl acetate [Compound 4]",significantly inhibit
2,"2-(3,4-Dihydroxyphenyl)-3-hexyloxy-5,7-dihydroxy-4H-chromen-4-one [Compound 2]",significantly inhibit

# Same assay, conditions: crystal violet, spectrophotometer; read-out: IC50 anti-proliferative effect, BRC - (BT549)
row,Substance,IC50
1,"2-(3,4-dihydroxyphenyl)-5,7-dihydroxy-4-oxo-4H-chromen-3-yl acetate [Compound 4]",48.6 µM
2,"2-(3,4-Dihydroxyphenyl)-3-hexyloxy-5,7-dihydroxy-4H-chromen-4-one [Compound 2]",156 µM

# System: human melanoma cells (A375)
# Test: Cell proliferation, crystal violet method
# Assay type: cell-based
# Details: 60 μM; FIG. 1a, 1b
# Description: as §3, §4, §5
row,Substance,growth of melanoma cells (A375) vs vehicle control
1,"2-(3,4-dihydroxyphenyl)-5,7-dihydroxy-4-oxo-4H-chromen-3-yl acetate [Compound 4]",significantly inhibit
2,"2-(3,4-Dihydroxyphenyl)-3-hexyloxy-5,7-dihydroxy-4H-chromen-4-one [Compound 2]",significantly inhibit

# Same assay, conditions: crystal violet, spectrophotometer; read-out: IC50 anti-proliferative effect, Melanoma (A375)
row,Substance,IC50
1,"2-(3,4-dihydroxyphenyl)-5,7-dihydroxy-4-oxo-4H-chromen-3-yl acetate [Compound 4]",20.1 µM
2,"2-(3,4-Dihydroxyphenyl)-3-hexyloxy-5,7-dihydroxy-4H-chromen-4-one [Compound 2]",19.3 µM

# System: human hepatocellular carcinoma cells (HepG2)
# Test: Cell proliferation, crystal violet method
# Assay type: cell-based
# Details: 80 μM; FIG. 8a, 8b
# Description: as §3, §4, §5
row,Substance,HepG2 tumour growth vs vehicle control
1,"2-(3,4-dihydroxyphenyl)-5,7-dihydroxy-4-oxo-4H-chromen-3-yl acetate [Compound 4]",significantly inhibit; also recorded: superior to that of quercetin
2,"2-(3,4-Dihydroxyphenyl)-3-hexyloxy-5,7-dihydroxy-4H-chromen-4-one [Compound 2]",significantly inhibit

# Same assay, conditions: crystal violet, spectrophotometer; read-out: IC50 anti-proliferative effect, HCC - HepG2
row,Substance,IC50
1,"2-(3,4-dihydroxyphenyl)-5,7-dihydroxy-4-oxo-4H-chromen-3-yl acetate [Compound 4]",54.4 µM
2,"2-(3,4-Dihydroxyphenyl)-3-hexyloxy-5,7-dihydroxy-4H-chromen-4-one [Compound 2]",265 µM

# System: human colon carcinoma cells (HCT116)
# Test: Intracellular ROS levels, DCFH2-DA probe
# Assay type: cell-based
# Details: 2 hrs of treatment; at the respective anti-proliferative IC50s; DCF fluorescence in A.U.; FIG. 22 left
# Description: Intracellular ROS levels were measured in tumour cells by using the probe 2,7-dichlorodihydrofluorescein diacetate (DCFH2-DA) and a fluorescence spectrophotometer. DCFH2-DA diffuses readily through the cell membrane into the cytosolic space of the cell where it is hydrolyzed by intracellular esterases into the non-permeable DCFH2 product. DCFH2 oxidation by intracellular ROS (mainly H2O2, HO·, ROO·, NO· and ONOO) results in the production of intracellular fluorescent DCF, whose concentration is directly proportional to the levels of ROS in the cell. […] All the experiments were repeated at least 3 times. Data analysis was carried out with GraphPad Prism 6 for graphical representation and statistical processing (1-way ANOVA test).
row,Substance,intracellular ROS levels in HCT116 cells
1,"2-(3,4-Dihydroxyphenyl)-3-hexyloxy-5,7-dihydroxy-4H-chromen-4-one [Compound 2]",significantly raise

# System: human colon (HCT116) tumour line
# Test: Apoptosis, acridine orange/ethidium bromide method
# Assay type: cell-based
# Details: 2 hrs; Compound 2 50 μM, 5 40 μM, 4 40 μM, 3 60 μM, 1 60 μM; FIG. 18
# Text: as §1
row,Substance,induction of apoptosis in HCT116
1,"2-(3,4-dihydroxyphenyl)-5,7-dihydroxy-4-oxo-4H-chromen-3-yl acetate [Compound 4]",induced apoptosis
2,"2-(3,4-Dihydroxyphenyl)-3-hexyloxy-5,7-dihydroxy-4H-chromen-4-one [Compound 2]",induced apoptosis

# System: normal cells (human skin fibroblasts, WS1)
# Test: Apoptosis, acridine orange/ethidium bromide method
# Assay type: cell-based
# Details: 2 hrs; Compound 2 40 μM, 5 40 μM, 4 40 μM, 3 60 μM, 1 80 μM; FIG. 18
row,Substance,induction of apoptosis in normal cells WS1
1,"2-(3,4-dihydroxyphenyl)-5,7-dihydroxy-4-oxo-4H-chromen-3-yl acetate [Compound 4]",not in normal cells
2,"2-(3,4-Dihydroxyphenyl)-3-hexyloxy-5,7-dihydroxy-4H-chromen-4-one [Compound 2]",not in normal cells
